Test results taken from patent US20030124104A1, “Probiotic compositions” (priority 2001, published 2003).
Several values for one entry are separate records, joined by “and”; a condition that tells them apart may be missing. Equal entries are not always repeated. Entries after “also recorded” stand apart in the source; their conditions may differ. Where two headings read alike, the source gives them in different places.

What was measured:
Type in all cases: cell-based
E. coli = experiment: MIC dilutions of bile acids, E. coli
E. Faecium = experiment: MIC dilutions of bile acids, E. Faecium
B. clausii = experiment: MIC dilutions of bile acids, B. clausii
K. pneumoniae = experiment: MIC dilutions of bile acids, K. pneumoniae
S. pneumoniae = experiment: MIC dilutions of bile acids, S. pneumoniae
B. subtilis = experiment: MIC dilutions of bile acids, B. subtilis
S. aureus = experiment: MIC dilutions of bile acids, S. aureus
P. mirabilils = experiment: MIC dilutions of bile acids, P. mirabilils
E. faecalis = experiment: MIC dilutions of bile acids, E. faecalis

Row | Compound | MIC (E. coli; E. coli) | MIC (E. Faecium) | MIC (B. clausii) | MIC (K. pneumoniae) | MIC (S. pneumoniae) | MIC (B. subtilis) | MIC (S. aureus) | MIC (P. mirabilils) | MIC (E. faecalis) | MIC (E. coli; Escherichia coli) | MIC (E. Faecium; Enterococcus faecium, read-out: MIC) | MIC (B. clausii; Shouchella clausii, read-out: MIC) | MIC (K. pneumoniae; Klebsiella pneumoniae, read-out: MIC) | MIC (S. pneumoniae; Streptococcus pneumoniae, read-out: MIC) | MIC (B. subtilis; Bacillus subtilis, read-out: MIC) | MIC (S. aureus; Staphylococcus aureus, read-out: MIC) | MIC (P. mirabilils; read-out: MIC) | MIC (E. faecalis; Enterococcus faecalis, read-out: MIC)
1 | C[C@H](CCC(=O)O)[C@H]1CC[C@H]2[C@@H]3CC[C@@H]4C[C@H](O)CC[C@]4(C)[C@H]3C[C@H](O)[C@]12C [DOC, deoxycholic acid] | ≧20 μg/mL; also recorded: (≧0.05) mM | 625 μg/mL and (1.6) mM | 78 μg/mL and (0.2) mM | ≧20 μg/mL; also recorded: (≧0.05) mM | 20 μg/mL and (0.05) mM | 78 μg/mL and (0.2) mM | ≧20 000 μg/mL; also recorded: (≧51.2) mM | ≧20 μg/mL; also recorded: (≧0.05) mM | 625 μg/mL and (1.6) mM | – | – | – | – | – | – | – | – | –
2 | C[C@H](CCC(=O)NCCS(=O)(=O)O)[C@H]1CC[C@H]2[C@@H]3CC[C@@H]4C[C@H](O)CC[C@]4(C)[C@H]3C[C@H](O)[C@]12C [TDOC, tauro-deoxycholic acid] | – | – | – | – | – | – | – | – | – | ≥ 25000 µg/mL and ≥ 51200 µM | 3120 µg/mL and 6400 µM | 24 µg/mL and ≤ 50 µM | ≥ 25000 µg/mL and ≥ 51200 µM | 25000 µg/mL and 51200 µM | 195 µg/mL and 400 µM | ≥ 25000 µg/mL and ≥ 51200 µM | ≥ 25000 µg/mL and ≥ 51200 µM | 25000 µg/mL and 51200 µM
